Values joined by “and” are separate entries in the source; they are usually repeats but may differ in a detail not shown here. Equal values may be shown once. Read-outs that look alike come from different tables or passages of the source.
What was measured:
[1] = Clinical observations and body weights after prochlorperazine administration in dogs; format: in vivo; details: dog
[2] = humans; reported; cited from earlier work
in vivo = details: female, mongrel, dog, 7 mg; for AUC(0-t): AUC0-10 min; for bioavailability: F, based on venous AUCinf
Description: The objective of this study was to determine the concentration of prochlorperazine in dog plasma processed from whole blood taken from both the left ventricle and venous circulation immediately following administration of prochlorperazine aerosol to the animal by way of the thermal aerosol generation process described herein, during a single deep inhalation.
This study consisted of four young adult, female, mongrel dogs. The animals were treated with the test article, prochlorperazine (PCZ), in three separate surgical/dosing sessions. In sessions 1 and 3, the test article was administered intravenously (IV), either via a 120-second infusion (Session 1) or as a five-second bolus (Session 3). In session 2, the test article was administered using a thermal aerosol generation process, during a single deep inhalation. Following treatment in each surgical/dosing session, blood samples were collected from the left ventricle and from a peripheral vein for bioanalysis. Left ventricular and venous plasma samples were obtained prior to drug administration. In addition, left ventricular plasma samples were obtained every five seconds during the first 30 seconds following drug administration, as well as frequently thereafter, with the last left ventricular sample collected 10 minutes following drug administration. Venous plasma samples were obtained from 15 seconds to 24 hours following drug administration. Clinical observations and body weights were recorded for all animals at specified time points.
The animals were treated in three separate surgical/dosing sessions. For each session, the animals were appropriately anesthetized prior to administration of the test article. Each surgical/dosing session was separated by a washout period of approximately 48 hours from the time of the previous treatment administration.
Session 1: While the animals were anesthetized, the test article (1.4 mL of 5 mg/mL prochloperazine edisylate injection) was administered as a 120-second intravenous (IV) manual infusion via a saphenous vein. Blood sampling commenced at the time of initiation of infusion (t=0).
Session 2: While the animals were anesthetized, an aerosol generation and administration system was connected in-line to an endotracheal tube to allow for delivery of the aerosol test article (prochlorperazine coated on a chemical, single dose heat package). The aerosol resulting from actuation of the prochlorperazine by the aerosol generation and administration system was administered during a single deep inhalation. Blood sampling commenced at the time of initiation of the deep inhalation (t=0).
Session 3: While the animals were anesthetized, the test article (1.4 mL of 5 mg/mL prochloperazine edisylate injection) was administered as a five-second IV bolus via a saphenous vein. Blood sampling commenced at the time of initiation of the bolus (t=0).
Each animal was premedicated with atropine sulfate (0.02 mg/kg, intramuscularly) and acepromazine (0.2 mg/kg, IM, to a maximum dose of 3 mg) prior to induction of anesthesia. At least 10 minutes later, the animal was anesthetized with Propofol(4-8 mg/kg, intravenously). The animal was then intubated and maintained in anesthesia with isoflurane inhalant anesthetic, delivered through a volume-regulated ventilator. An intravenous catheter was placed in a peripheral vessel for administration of lactated Ringer's solution during the procedure at a rate of approximately 5 mL/kg/hr.
A midline incision was made in the neck and one of the carotid arteries was exposed. The artery was mobilized a distance of about 5 cm and two Vessel-Loops® were placed around it, proximally and distally.

[3] = Clinical observations and body weights after alprazolam administration in dogs; format: in vivo; details: dog
Description: (§1) This study consisted of five young adult, female, mongrel dogs. Four animals per session were treated with the test article, alprazolam, in two separate surgical/dosing sessions. In Session 1 the test article was administered intravenously (IV) as a 5-second bolus. […] The animals were dosed at a level of 0.7 mg of alprazolam in both dosing sessions.

[4] = Pharmacokinetics of aerosolized alprazolam in dog (left ventricular and venous plasma) vs IV bolus; format: in vivo; details: for AUC(0-t) / bioavailability / Cmax / Tmax / AUC / half-life: female, mongrel, 0.7 mg; for AUC(0-t): venous plasma; for Tmax: median
Description: as §1
Four animals per session were treated with the test article, alprazolam, in two separate surgical/dosing sessions. The animals were dosed at a level of 0.7 mg of alprazolam in both dosing sessions.
Anesthesia was performed substantially as described in Example 1.
Whole blood samples were centrifuged. […] All plasma samples were stored until analyzed. […] Plasma samples were mixed with spiking solutions of alprazolam, α-hydroxyalprazolam, 4-hydroxyalprazolam and an internal standard (alprazolam-d5). […] Drug or metabolite concentrations were calculated by comparing (drug or metabolite)/internal standard ratios to standard curves prepared in dog plasma.
Individual plasma concentration-time data from four animals, two sampling sites, and two dose routes were analyzed by noncompartmental pharmacokinetic methods via WinNonlin using nominal time points. Areas were calculated using the linear trapezoidal rule.

[5] = left ventricular plasma, inhaled or intranasal, dog left ventricular plasma, aerosol inhalation
[6] = left ventricular plasma, iv, dog left ventricular plasma, 2-min IV infusion
[7] = left ventricular plasma, iv, dog left ventricular plasma, IV bolus
[8] = venous plasma, iv, dog venous plasma, 2-min IV infusion
[9] = venous plasma, iv, dog venous plasma, IV bolus
[10] = dog left ventricular plasma, IV bolus
[11] = dog venous plasma, 7 mg, 2-min IV infusion
[12] = dog venous plasma, 7 mg, IV bolus
[13] = dog venous plasma, 7 mg, aerosol inhalation
[14] = inhaled or intranasal, dog left ventricular plasma, aerosol inhalation
[15] = inhaled or intranasal, dog venous plasma, aerosol inhalation

SMILES: CN1CCN(CCCN2c3ccccc3Sc3ccc(Cl)cc32)CC1 [PCZ, prochlorperazine]
- adverse effects by clinical observations ([1]; 7 mg IV infusion, aerosol, IV bolus sessions): no adverse effects
- body weights between treatment sessions ([1]; all animals): maintained
- oral bioavailability [2]: 12.5%
- Tmax (in vivo; left ventricular and venous plasma, iv, dog left ventricular and venous plasma, 2-minute IV infusion): 1.25 to 3 min
- AUC(0-t) (in vivo; [5]): 89.1 ± 13.7 ng·h/mL
- Cmax (in vivo; [5]): 3260 ± 975 ng/mL
- Tmax (in vivo; [5]): 0.33 min
- AUC(0-t) (in vivo; [6]): 88.5 ± 25.7 ng·h/mL
- AUC(0-t) (in vivo; [7]): 98.3 ± 15 ng·h/mL
- Cmax (in vivo; [6]): 1360 ± 396 ng/mL
- Cmax (in vivo; [7]): 3480 ± 767 ng/mL
- Tmax (in vivo; [6]): 1.9 min
- Tmax (in vivo; [7]): 0.5 min
- Cmax (in vivo; venous plasma, inhaled or intranasal, dog venous plasma, thermal aerosol single deep inhalation, mean ± SD): 886 ± 268 ng/mL
- half-life (in vivo; venous plasma, inhaled or intranasal, Half-Life, dog venous plasma, aerosol inhalation): 76.2 ± 17.4 min
- Tmax (in vivo; venous plasma, inhaled or intranasal, dog venous plasma, aerosol inhalation): 1 min
- bioavailability (in vivo; venous plasma, inhaled, aerosol bioavailability to IV bolus, 7 mg aerosol vs IV bolus): 82%
- bioavailability (in vivo; venous plasma, inhaled, aerosol bioavailability to IV infusion, 7 mg aerosol vs 2-min IV infusion): 109%
- clearance (in vivo; venous plasma, intravenous, inhaled, mean clearances, dog venous, span over the three groups): 18.9 to 24.8 mL/min/kg
- half-life (in vivo; venous plasma, intravenous, inhaled, mean half-lives, dog venous, span over the three groups): 76.2 to 105 min
- clearance (in vivo; venous plasma, iv, CL, dog venous plasma, 2-min IV infusion): 24.8 mL/min/kg
- clearance (in vivo; venous plasma, iv, CL, dog venous plasma, IV bolus): 18.9 ± 3.6 mL/min/kg
- Cmax (in vivo; venous plasma, iv, dog venous plasma, 2-min IV infusion, mean ± SD): 442 ± 270 ng/mL
- Cmax (in vivo; venous plasma, iv, dog venous plasma, 5-second IV bolus, mean ± SD): 1300 ± 1260 ng/mL
- half-life (in vivo; venous plasma, iv, Half-Life, dog venous plasma, 2-min IV infusion): 105 ± 9.6 min
- half-life (in vivo; venous plasma, iv, Half-Life, dog venous plasma, IV bolus): 82.2 ± 6 min
- Tmax (in vivo; [8]): 2.5 min
- Tmax (in vivo; [9]): 1.1 min
- Vd (in vivo; [8]): 3.8 L/kg
- Vd (in vivo; [9]): 2.3 ± 0.6 L/kg
- Cmax (dog left ventricular plasma, 7 mg, 2-min IV infusion): 1365.3 ± 396.2 ng/mL
- Cmax (dog left ventricular plasma, 7 mg, IV bolus): 3481.8 ± 787.2 ng/mL
- Cmax (dog left ventricular plasma, 7 mg, aerosol inhalation): 3261.5 ± 974.8 ng/mL
- Cmax (dog left ventricular plasma, 7 mg, aerosol inhalation, listed as prochlorperazine): 3261 ng/mL
- time of maximum left ventricular concentration [10]: 30 s
- time of maximum left ventricular concentration (dog left ventricular plasma, aerosol inhalation): 20 s
- AUC0-10 min [11]: 32.2 ± 21.1 ng·h/mL
- AUCinf [11]: 229.9 ± 35.7 ng·h/mL
- Tlast [11]: 8.0 ± 0.0 h
- Cmax (dog venous plasma, 7 mg, 2-min IV infusion, mean ± SD): 441.8 ± 269.9 ng/mL
- AUC0-10 min [12]: 63.4 ± 15.7 ng·h/mL
- AUCinf [12]: 305.1 ± 59.3 ng·h/mL
- Tlast [12]: 8.0 ± 0.0 h
- AUC0-10 min [13]: 56.5 ± 10.6 ng·h/mL
- AUCinf [13]: 250.4 ± 58.2 ng·h/mL
- Tlast [13]: 6.0 ± 2.3 h
- Vd [13]: 2.6 ± 1.1 L/kg
- Cmax (dog venous plasma, 7 mg, thermal aerosol single deep inhalation, mean ± SD): 886.5 ± 268.3 ng/mL
- mean maximum concentration, left ventricular plasma relative to venous plasma (dog, 2-minute IV infusion): approximately 3 fold
- venous plasma concentration at time points after 8 hr (undetectable levels) (dog, 2-minute IV infusion): < 2 ng/mL
- peak concentration in left ventricular plasma relative to 2-minute IV infusion (dog, aerosol and IV bolus treatments): approximately 2.5 fold
- F, aerosol bioavailability to IV infusion (dog, based on venous AUCinf, 7 mg aerosol vs 2-min IV infusion): 108.7±19% and 108.9 ± 19.2%
- F, aerosol bioavailability to IV bolus (dog, based on venous AUCinf, 7 mg aerosol vs IV bolus): 82.1 ± 13.1%
- (ventricular) spike index for inhalation (dog, left ventricular Cmax aerosol divided by Cmax 2-min IV infusion): 2.4

SMILES: Cc1nnc2n1-c1ccc(Cl)cc1C(c1ccccc1)=NC2 [alprazolam]
- body weight change between treatment sessions [3]: no remarkable change
- adverse effects by clinical observations ([3]; 0.7 mg IV bolus and aerosol sessions): no adverse effects
- last time concentrations measurable (last sampling time) ([4]; dog left ventricle plasma, all cases): 10 min
- median time through which concentrations were measurable ([4]; dog venous plasma, IV dosing): 240 min
- median time through which concentrations were measurable ([4]; dog venous plasma, inhalation dosing): 360 min
- mean Cmax for left ventricle plasma relative to venous plasma ([4]; dog, both routes of administration): ~7 fold
- mean Cmax after inhalation as percentage of values after intravenous dosing ([4]; dog, left ventricle and venous plasma): approximately 70%
- bioavailability based upon mean AUC (n=4) by each route ([4]; dog, left ventricle sampling): 81.5%
- bioavailability based upon mean AUC (n=4) by each route ([4]; dog, systemic plasma): 94.9%
- AUC(0-t) ([4]; dog, inhaled or intranasal, dog venous plasma, aerosol inhalation, read-out: AUC0-240 (converted)): 38.3 ng·h/mL
- AUC(0-t) ([4]; dog, inhaled or intranasal, dog venous plasma, aerosol inhalation, read-out: AUClast (converted)): 43.3 ng·h/mL
- AUC(0-t) ([4]; dog, iv, dog venous plasma, IV bolus, read-out: AUC0-240 (converted)): 42.3 ng·h/mL
- AUC(0-t) ([4]; dog, iv, dog venous plasma, IV bolus, read-out: AUClast (converted)): 45.3 ng·h/mL
- bioavailability ([4]; inhaled or intranasal, dog, based on AUC for venous plasma, n=3, read-out: F, mean bioavailability for inhalation administration): 95.5%
- Cmax [4, 14]: 676 ± 99.5 ng/mL
- Tmax [4, 14]: 0.25 min
- AUC [4, 15]: 49.7 ng·h/mL
- Cmax ([4]; inhaled or intranasal, dog venous plasma, aerosol inhalation, mean ± SD, n=4): 102 ± 57.2 ng/mL
- Tmax [4, 15]: 0.5 min
- half-life ([4]; inhaled or intranasal, dog venous plasma, aerosol inhalation, read-out: Half-Life): 115 ± 12.9 min
- half-life ([4]; intravenous, inhaled, dog venous plasma, both routes, read-out: mean terminal elimination half-life): ~110 min
- bioavailability ([4]; left ventricular plasma, inhaled or intranasal, dog, based on AUC for left ventricle plasma, three animals, read-out: mean bioavailability for inhalation administration): 85%
- half-life ([4]; left ventricular plasma, intravenous, inhaled, dog left ventricle plasma, both routes, read-out: mean terminal elimination half-life): ~4 min
- Cmax [4, 10]: 967 ± 303 ng/mL
- Tmax [4, 10]: 0.42 min
- Cmax ([4]; dog venous plasma, 5-second IV bolus, mean ± SD, n=4): 147 ± 93.5 ng/mL
- AUC ([4]; dog venous plasma, IV bolus): 52.3 ng·h/mL
- Tmax ([4]; dog venous plasma, IV bolus): 0.75 min
- half-life ([4]; dog venous plasma, IV bolus, read-out: Half-Life): 106 ± 22 min
